Source: PMC2806825, “The Expression Level of CB1 and CB2 Receptors Determines Their Efficacy at Inducing Apoptosis in Astrocytomas” (PLoS ONE, 2010)

What was measured:
DBT cells = assay: Cell viability by WST-1 conversion, wild type DBT cells and DBT subclones; format: cell-based, mouse
Method: (§1) Cells were expanded in 24-well plates (10^5 cells per well) in culture media (0.5 ml per well). Once they reached ∼70% confluence, they were rinsed with PBS and kept for an additional 24 hrs in serum-deprived media, at which time drugs or vehicle (DMSO, 0.1%) prepared in 50 µl serum-deprived media were directly added to each well. After 1, 3, or 5 days, cell viability was assessed using the Cell Proliferation Reagent WST-1 (Roche, Indianapolis, IN). Briefly, WST-1 reagent (50 µl) was added to each well for 4 hrs at 37°C with 5% CO2, and then WST-1 products were read at 450 nm using Packard SpectraCount™. Apoptosis was assessed using PI and annexin V (Pacific Blue™, Invitrogen). Briefly, cells were detached using trypsin, rinsed with 25°C PBS and resuspended to a density of 10^6 cells per ml of annexin-binding buffer (10 mM HEPES, 140 mM NaCl, 2.5 mM CaCl2, pH 7.4). PI (100 ng) and annexin V were added to 100 µl of cell suspension and incubated at 25°C for 30 min. Additional annexin-binding buffer was added (400 µl) and samples were sorted (10,000 events) on a LSR II flow cytometer (BD Biosciences, San Jose, CA) and the data analyzed using FlowJo (Tree Star, Inc., Ashland, OR).

wild type DBT cells = assay: Cell viability by WST-1 conversion, wild type DBT cells; format: cell-based, mouse
Method: as §1

CB1-low DBT cells [1] = assay: Cell viability by WST-1 conversion, CB1-low DBT cells; format: cell-based, mouse
Method: as §1

CB2 receptors [2] = target: T1, CB2 receptors (Mus musculus, UniProt P47936); assay: AKT phosphorylation by Luminex multiplex immunoassay in CB2-expressing DBT subclones; format: cell-based; details: for AKT phosphorylation: 1 µM
T1 construct: expressed in transfected cells
T1 sequence (P47936 whole entry): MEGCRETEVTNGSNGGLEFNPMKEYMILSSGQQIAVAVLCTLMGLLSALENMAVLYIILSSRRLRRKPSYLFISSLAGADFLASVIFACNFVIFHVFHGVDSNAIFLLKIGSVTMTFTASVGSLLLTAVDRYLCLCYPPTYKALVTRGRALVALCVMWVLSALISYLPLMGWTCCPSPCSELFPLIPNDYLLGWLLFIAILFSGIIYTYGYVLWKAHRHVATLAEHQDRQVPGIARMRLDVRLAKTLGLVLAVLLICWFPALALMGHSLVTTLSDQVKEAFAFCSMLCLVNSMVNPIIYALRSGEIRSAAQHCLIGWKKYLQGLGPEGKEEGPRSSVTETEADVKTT
Method: (§2) Cells were expanded in Costar 24-well plates (10^5 cells per well) in culture media (0.5 ml per well). Once they reached ∼70% confluence, they were rinsed with PBS and kept for an additional 24 hrs in serum-deprived media, at which time point drugs or vehicle (DMSO, 0.1%) prepared in 50 µl serum-deprived media were directly added to each well for the corresponding number of minutes. We chose to directly administer the drugs to cell culture media instead of replacing the media to avoid stress-induced increases in basal kinase phosphorylation (Figure S1). To quantify Erk phosphorylation, reactions were stopped by removing the media and adding NuPAGE® LDS sample buffer (300 µl, Invitrogen, Carlsbad, CA) supplemented with 2-mercaptoethanol (1%). An aliquot of each sample (20 µl) was loaded onto NuPAGE® 4–12% Bis-Tris pre-cast gels (Inivtrogen) and electrophoresed according to the manufacturer's instructions. Gels were electrophoretically transferred to P-nitrocellulose membrane (Millipore, Billerica, MA) and blocked in LiCOR blocking buffer (LiCOR, Lincoln, NE) for 1 hr at 25°C. Membranes were then incubated in blocking buffer containing rabbit anti-phospho-p44/42 antibody (1∶1000, Cell Signaling Technology, Inc., Danvers, MA) for 1 hr at 25°C. Membranes were washed 3 times with Tris (50 mM) buffered saline containing 0.1% Tween-20 (TBS-T). Membranes were then incubated in blocking buffer containing donkey anti-rabbit antibody conjugated to IRDye 800 (1∶7500, Rockland Immunochemicals, Inc., Gilbertsville, PA) for 1 hr at 25°C. Membranes were washed 3 times with TBS-T. The fluorescence intensity of each band was quantified using the LiCOR Odyssey. To quantify AKT, JNK, p38 and GSKβ phosphorylation, reactions were stopped by addition of NP40 cell lysis buffer (100 µl, Invitrogen). Substrate phosphorylation was quantified using a Biosource Multiplex Bead Immunoassay kit (Invitrogen) according to the manufacturer's instructions and using a Luminex 100™ instrument (Luminex, Austin, TX).

CB2 receptors [3] = target: T1, CB2 receptors; assay: ERK1/2 phosphorylation by Western blot in CB2-expressing DBT subclones; format: cell-based
Method: as §2

wild-type DBT cells [4] = assay: Radioligand binding with [3H]CP-55,940 on wild-type DBT cells; parameters: species or system mouse
Method: (§3) Cells (10^6) were expanded in 10 cm dishes using 10 ml culture media. Once they reached ∼70% confluence, they were rinsed with PBS and kept for an additional 24 hrs in serum-deprived media, which is composed of DMEM+GlutaMAX™-I supplemented with fatty acid free bovine serum albumin (0.1%, BSA, Sigma-Aldrich, St. Louis, MO) and insulin-transferin-sodium selenite liquid media (1×, ITS, Sigma-Aldrich). For qPCR, media was removed and cells washed once with 10 ml PBS, then cells were scraped and total RNA isolated using RNeasy extraction kit (QIAGEN) according to the manufacturer's instructions. The following primer and TaqMan probe sequences were generated using Primer Express (Perkin-Elmer Applied Biosystems, Foster City, CA): mCB1 forward, 5′-[…]-3′, reverse, 5′-[…]-3′, probe, 5′-([…])-3′; mCB2 forward, 5′-[…]-3′, reverse, 5′-[…]-3′, probe, 5′-([…])-3′. Total RNA from each sample (2.5 ng) was reverse transcribed in the same 10 µl quantitative PCR reaction mix using the Brilliant Single-Step Quantitative RT-PCR Core Reagent Kit (Stratagene, La Jolla, CA). Combined reactions were carried out on a Stratagene Mx3000P Real-Time Detection System using the following protocol: 30 min single-strand synthesis reaction at 45°C; 40-cycle, two-step PCR amplification (15 sec at 95°C followed by 1 min at 56°C). […] Radioactivity on filters was measured using scintillation counter.

CB1 receptors = target: T2, CB1 receptors (Mus musculus, UniProt P47746); assay: Radioligand saturation binding with [3H]CP-55,940 on membranes of CB1-expressing DBT subclones; details: mean of 3–5 determinations
T2 construct: expressed in transfected cells
T2 sequence (P47746 whole entry): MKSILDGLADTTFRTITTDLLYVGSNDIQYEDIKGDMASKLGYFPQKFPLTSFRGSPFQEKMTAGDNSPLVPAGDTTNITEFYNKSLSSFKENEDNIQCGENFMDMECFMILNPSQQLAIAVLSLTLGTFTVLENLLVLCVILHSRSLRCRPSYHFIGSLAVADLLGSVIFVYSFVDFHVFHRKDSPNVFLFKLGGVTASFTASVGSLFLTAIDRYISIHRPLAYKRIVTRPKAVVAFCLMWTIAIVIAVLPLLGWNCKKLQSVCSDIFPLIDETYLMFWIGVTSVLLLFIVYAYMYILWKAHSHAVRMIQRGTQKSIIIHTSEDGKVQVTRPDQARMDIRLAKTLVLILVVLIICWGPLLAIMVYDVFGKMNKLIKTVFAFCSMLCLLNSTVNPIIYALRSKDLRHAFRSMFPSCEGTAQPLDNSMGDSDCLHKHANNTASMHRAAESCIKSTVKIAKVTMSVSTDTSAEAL
Method: as §3, with “56°C). Duplicate reactions with and without reverse transcriptase were run for each sample. For radioligand binding, media was removed and cells washed once with 10 ml PBS. Cells were scraped in 1 ml buffer (50 mM Tris-HCl, 3 mM MgCl2, 1 mM EDTA, pH 7.4) and pulse homogenized 10 sec using PRO200 tissue homogenizer (PRO Scientific, Oxford, CT). Crude membrane preparations were generated by centrifugation of cell homogenates for 20 min at >10,000×g. Cell pellets were resuspended in buffer containing BSA (0.1%, fatty acid free) and 50 µg protein added to siliconized glass tubes for assay.” for “56°C).”

CB2 receptors [5] = target: T1, CB2 receptors; assay: Radioligand saturation binding with [3H]CP-55,940 on membranes of CB2-expressing DBT subclones; details: mean of 3–5 determinations
Method: as §3, with “56°C). Duplicate reactions with and without reverse transcriptase were run for each sample. For radioligand binding, media was removed and cells washed once with 10 ml PBS. Cells were scraped in 1 ml buffer (50 mM Tris-HCl, 3 mM MgCl2, 1 mM EDTA, pH 7.4) and pulse homogenized 10 sec using PRO200 tissue homogenizer (PRO Scientific, Oxford, CT). Crude membrane preparations were generated by centrifugation of cell homogenates for 20 min at >10,000×g. Cell pellets were resuspended in buffer containing BSA (0.1%, fatty acid free) and 50 µg protein added to siliconized glass tubes for assay.” for “56°C).”

wild-type DBT cells [6] = assay: Apoptosis by propidium iodide and annexin V FACS, wild-type DBT cells; format: cell-based, mouse; details: 10 µM
Method: as §1

CB2 receptors [7] = target: T1, CB2 receptors; assay: JNK and p38 phosphorylation by Luminex multiplex immunoassay in CB2-high DBT clone; format: cell-based; details: 1 µM, lasted throughout 30 min incubation
Method: as §2, with “Gels were electrophoretically transferred to P-nitrocellulose membrane (Millipore, Billerica, MA) and blocked in LiCOR blocking buffer (LiCOR, Lincoln, NE) for 1 hr at 25°C. Membranes were then incubated in blocking buffer containing rabbit anti-phospho-p44/42 antibody (1∶1000, Cell Signaling Technology, Inc., Danvers, MA) for 1 hr at 25°C. Membranes were washed 3 times with Tris (50 mM) buffered saline containing 0.1% Tween-20 (TBS-T). Membranes were then incubated in blocking buffer containing donkey anti-rabbit antibody conjugated to IRDye 800 (1∶7500, Rockland Immunochemicals, Inc., Gilbertsville, PA) for 1 hr at 25°C.” left out

[8] = system: ERK1/2 phosphorylation in wild-type DBT cells; assay: ERK1/2 phosphorylation in wild-type DBT cells; format: cell-based, mouse; details: 1 µM
Method: as §2, with “Gels were electrophoretically transferred to P-nitrocellulose membrane (Millipore, Billerica, MA) and blocked in LiCOR blocking buffer (LiCOR, Lincoln, NE) for 1 hr at 25°C. Membranes were then incubated in blocking buffer containing rabbit anti-phospho-p44/42 antibody (1∶1000, Cell Signaling Technology, Inc., Danvers, MA) for 1 hr at 25°C. Membranes were washed 3 times with Tris (50 mM) buffered saline containing 0.1% Tween-20 (TBS-T). Membranes were then incubated in blocking buffer containing donkey anti-rabbit antibody conjugated to IRDye 800 (1∶7500, Rockland Immunochemicals, Inc., Gilbertsville, PA) for 1 hr at 25°C.” left out

[9] = system: AKT phosphorylation in wild type DBT cells; assay: AKT phosphorylation in wild type DBT cells; format: cell-based, mouse; details: 1 µM
Method: as §2, with “Gels were electrophoretically transferred to P-nitrocellulose membrane (Millipore, Billerica, MA) and blocked in LiCOR blocking buffer (LiCOR, Lincoln, NE) for 1 hr at 25°C. Membranes were then incubated in blocking buffer containing rabbit anti-phospho-p44/42 antibody (1∶1000, Cell Signaling Technology, Inc., Danvers, MA) for 1 hr at 25°C. Membranes were washed 3 times with Tris (50 mM) buffered saline containing 0.1% Tween-20 (TBS-T). Membranes were then incubated in blocking buffer containing donkey anti-rabbit antibody conjugated to IRDye 800 (1∶7500, Rockland Immunochemicals, Inc., Gilbertsville, PA) for 1 hr at 25°C.” left out

CB1-low DBT cells [10] = assay: Apoptosis by propidium iodide and annexin V FACS, CB1-low DBT cells; format: cell-based, mouse; details: 1 µM
Method: as §1

GSK-3β phosphorylation = GSK-3β phosphorylation by Luminex multiplex immunoassay in DBT subclones; format: cell-based, mouse; details: any of the subclones, throughout 30 min incubation; data not shown
Method: as §2, with “Gels were electrophoretically transferred to P-nitrocellulose membrane (Millipore, Billerica, MA) and blocked in LiCOR blocking buffer (LiCOR, Lincoln, NE) for 1 hr at 25°C. Membranes were then incubated in blocking buffer containing rabbit anti-phospho-p44/42 antibody (1∶1000, Cell Signaling Technology, Inc., Danvers, MA) for 1 hr at 25°C. Membranes were washed 3 times with Tris (50 mM) buffered saline containing 0.1% Tween-20 (TBS-T). Membranes were then incubated in blocking buffer containing donkey anti-rabbit antibody conjugated to IRDye 800 (1∶7500, Rockland Immunochemicals, Inc., Gilbertsville, PA) for 1 hr at 25°C.” left out

[11] = antagonist 3 µM added 10 min before CP, CB2 subclones

CCN(CC)CCCCN1c2ccccc2Oc2ccc(Cl)cc21.Cl [Inhibitor X]
Effect on killing by 1 µM CP-55,940 (WST-1) (DBT cells; 5 µM added 10 min before CP, DBT subclones normally resistant, 5 days): uncovered the ability of 1 µM CP-55,940 to kill
Effect by itself on cell viability (WST-1) (DBT cells; 5 µM, DBT subclones, 5 days): no effect

COc1cccc(-c2cc(=O)c3ccccc3o2)c1N [PD98059]
Effect on 10 µM CP-55,940-induced killing (wild type DBT cells; inhibitor 10 µM pretreatment, wild-type DBT cells): partially prevented
Effect on 1 µM CP-55,940-induced killing (CB1-low DBT cells [1]; inhibitor 10 µM pretreatment, CB1-low DBT cells): partially prevented

5- (4-chloro-3- methyl- phenyl)-1- [(4- methylphenyl)methyl]- N-(1,3,3- trimethylnorbornan- 2- yl)- pyrazole- 3- carboxamide [SR144528]
Effect on CP-55,940 (1 µM)-induced AKT phosphorylation (CB2 receptors [2]; [11]): antagonized
Effect on CP-55,940 (1 µM)-induced ERK1/2 phosphorylation (CB2 receptors [3]; [11]): significantly attenuated

CCCCCCC(C)(C)c1ccc([C@@H]2C[C@H](O)CC[C@H]2CCCO)c(O)c1 [[^3H]CP-55,940]
Radioligand binding (wild-type DBT cells [4]): no binding
Kd (CB1 receptors; CB1-high subclone E5): 0.7 nM
Kd (CB1 receptors; CB1-low subclone E3): 0.8 nM
Kd (CB1 receptors; CB1-mid subclone E7): 0.8 nM
Kd (CB2 receptors [5]; CB2-high subclone 1D6): 0.6 nM
Kd (CB2 receptors [5]; CB2-low subclone 2G5): 0.8 nM
Kd (CB2 receptors [5]; CB2-mid subclone 2H1): 0.4 nM

(−)-cis-3-[2-hydroxy-4-(1,1-dimethylheptyl)phenyl]-trans-4-(3-hydroxypropyl) cyclohexanol [CP-55,940]
Cell death (WST-1) (DBT cells; 10 µM, wild type DBT cells and all six subclones, five days after treatment): 35–90%
AKT phosphorylation (CB2 receptors [2]; CB2-high clone, during the entire 30 min incubation): above 250 % of basal
AKT phosphorylation (CB2 receptors [2]; CB2-high subclone): most pronounced increase
AKT phosphorylation (CB2 receptors [2]; CB2-low and CB2-mid subclones): small, but significant increase
EC50 (wild type DBT cells; wild type DBT cells, Figure 3c, read-out: EC50 of cell death (WST-1)): 5000 nM
Cell death by apoptosis (wild-type DBT cells [6]; 3 days after treatment): 27%
Cell death by apoptosis (wild-type DBT cells [6]; after five days): 78%
Phosphorylation state of JNK and p38 (CB2 receptors [7]): 150–170 % of basal
ERK1/2 phosphorylation [8]: did not affect
ERK1/2 phosphorylation above vehicle-treated controls (CB2 receptors [3]; 1 µM, 3 min, CB2-low, CB2-mid, CB2-high subclones): significant increase
Time of peak of ERK1/2 phosphorylation (CB2 receptors [3]; 1 µM, CB2-expressing subclones): 3 min
Time of return of ERK1/2 phosphorylation to basal (CB2 receptors [3]; 1 µM, CB2-expressing subclones): 10 to 20 min
AKT phosphorylation [9]: did not increase
Cell death by apoptosis (CB1-low DBT cells [10]; 3 days after treatment): 15%
Cell death by apoptosis (CB1-low DBT cells [10]; after five days): 48%
Phosphorylation state of GSK-3β (GSK-3β phosphorylation): did not significantly affect
Cell death (WST-1) (CB1-low DBT cells [1]; 1 µM, CB1-low DBT subclone, five days after treatment): ~50%
EC50 (CB1-low DBT cells [1]; CB1-low DBT cells, Figure 3c, read-out: EC50 of cell killing (WST-1)): 560 nM

Cc1c(C(=O)NN2CCCCC2)nn(-c2ccc(Cl)cc2Cl)c1-c1ccc(Cl)cc1 [SR141716A, 5-(4-chlorophenyl)-1-(2,4-dichlorophenyl)-4-methyl-N-(1-piperidyl)-1H-pyrazole-3-carboxamide]
Effect on 10 µM CP-55,940-induced cell death (wild type DBT cells; antagonist 5 µM pretreatment, wild type DBT cells): did not affect
Effect on 1 µM CP-55,940-induced killing (CB1-low DBT cells [1]; antagonist 5 µM pretreatment, CB1-low DBT cells): blocked
